Results: patent US20230348418A1, “ISOINDOLINONE COMPOUNDS” (Monte Rosa Therapeutics, Inc., priority 2021, published 2023)
Like-named read-outs stand apart in the source and are kept apart here.

Legend:
[1] = target: CRBN-DDB1 (Homo sapiens, UniProt Q96SW2); assay: HTRF binding of compounds to CRBN
Description: Compound activity was monitored in a Homogenous Time-Resolved Fluorescence (HTRF) assay using 1-[5-({2-[2-(2-{[2-(2,6-dioxopiperidin-3-yl)-1,3-dioxo-2,3-dihydro-1H-isoindol-4-yl]oxy}acetamido)ethoxy]ethyl}carbamoyl)pentyl]-3,3-dimethyl-2-[(1E,3E)-5-[(2E)-1,3,3-trimethyl-5-sulfo-2,3-dihydro-1H-indol-2-ylidene]penta-1,3-dien-1-yl]-3H-indol-1-ium-5-sulfonate as a fluorescent probe. […] Compounds were stored in dry, ambient temperatures at 10 mM. A 10-point, 1:3 dilution series was prepared from 10 mM stock concentrations in Echo-compatible LDV plates. 10 nL of each compound dilution series was dispensed into assays wells using an Echo 650 (Labcyte inc. USA). […] The assay was then allowed to incubate for 30 min at ambient temperature after transferring compound. […] Analysis and IC50 values were derived using KNIME analytics (KNIME Zurich) transformation and fitting within Collaborative Drug Discovery (Collaborative Drug Discovery USA). Ki was derived from the geometric mean of the IC50 values using the Cheng-Prustoff transformation.

[2] = target: T1, Full length wild-type cereblon CRBN (Homo sapiens, UniProt Q96SW2); assay: Fluorescence polarization (FP) assay, cereblon binding
T1 construct: Full length wild-type cereblon CRBN (80.0 nM, 10 μL) was incubated in assay buffer
T1 sequence (Q96SW2 whole entry): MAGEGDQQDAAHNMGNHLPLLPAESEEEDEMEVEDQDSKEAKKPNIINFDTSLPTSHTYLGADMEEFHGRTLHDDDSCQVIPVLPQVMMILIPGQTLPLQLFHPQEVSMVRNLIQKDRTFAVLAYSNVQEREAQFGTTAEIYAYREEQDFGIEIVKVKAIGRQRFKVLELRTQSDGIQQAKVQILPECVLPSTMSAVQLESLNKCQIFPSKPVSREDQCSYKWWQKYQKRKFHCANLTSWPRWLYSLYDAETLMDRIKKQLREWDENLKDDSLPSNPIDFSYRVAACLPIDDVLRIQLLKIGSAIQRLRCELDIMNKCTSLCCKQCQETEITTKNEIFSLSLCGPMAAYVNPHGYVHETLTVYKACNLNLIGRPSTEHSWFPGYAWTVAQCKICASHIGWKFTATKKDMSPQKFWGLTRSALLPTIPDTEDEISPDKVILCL
Excerpt: Compound activity was monitored in a fluorescence polarization (FP) homogeneous assay using 1-[5-({2-[2-(2-{[2-(2,6-dioxopiperidin-3-yl)-1,3-dioxo-2,3-dihydro-1H-isoindol-4-yl]oxy}acetamido)ethoxy]ethyl}carbamoyl)pentyl]-3,3-dimethyl-2-[(1E,3E)-5-[(2E)-1,3,3-trimethyl-5-sulfo-2,3-dihydro-1H-indol-2-ylidene]penta-1,3-dien-1-yl]-3H-indol-1-ium-5-sulfonate as a fluorescent probe. Unless otherwise stated, all reagents were purchased from Sigma Aldrich. […] Full length wild-type cereblon CRBN (80.0 nM, 10 μL) was incubated in assay buffer containing 20 mM HEPES (pH 8.0), […], 0.5 mM TCEP and 0.05% Tween 20 in the presence or absence of compound (300 nL). Inhibitors were stored as 10 mM DMSO stocks in an inert environment (low humidity, dark, low oxygen, room temperature) using the Storage Pod System. […] Following incubation at room temperature for 30 min, the assay was initiated by dispensing the probe to a final concentration of […] (2.5 nL of a 20 μM stock) using the Echo E5XX. […] The FP signal was subsequently normalized to the no-compound control (i.e., DMSO). Analysis and IC50 values were derived using Dotmatics (Dotmatics UK) software.

[3] = read-out: HTRF Class (Cereblon binding, HTRF IC50)
[4] = bounds stated in the text lists b2059-b2061, read-out: IC50 value
[5] = cereblon binding, class code, read-out: rFP IC50
[6] = IC50 value, bounds stated in the text lists b2059-b2061
[7] = rFP IC50 [nM], cereblon binding, class code

Sequence of CRBN-DDB1 (Q96SW2 whole entry): as above
Sequence of CRBN-DDB1 (Q16531 whole entry partner): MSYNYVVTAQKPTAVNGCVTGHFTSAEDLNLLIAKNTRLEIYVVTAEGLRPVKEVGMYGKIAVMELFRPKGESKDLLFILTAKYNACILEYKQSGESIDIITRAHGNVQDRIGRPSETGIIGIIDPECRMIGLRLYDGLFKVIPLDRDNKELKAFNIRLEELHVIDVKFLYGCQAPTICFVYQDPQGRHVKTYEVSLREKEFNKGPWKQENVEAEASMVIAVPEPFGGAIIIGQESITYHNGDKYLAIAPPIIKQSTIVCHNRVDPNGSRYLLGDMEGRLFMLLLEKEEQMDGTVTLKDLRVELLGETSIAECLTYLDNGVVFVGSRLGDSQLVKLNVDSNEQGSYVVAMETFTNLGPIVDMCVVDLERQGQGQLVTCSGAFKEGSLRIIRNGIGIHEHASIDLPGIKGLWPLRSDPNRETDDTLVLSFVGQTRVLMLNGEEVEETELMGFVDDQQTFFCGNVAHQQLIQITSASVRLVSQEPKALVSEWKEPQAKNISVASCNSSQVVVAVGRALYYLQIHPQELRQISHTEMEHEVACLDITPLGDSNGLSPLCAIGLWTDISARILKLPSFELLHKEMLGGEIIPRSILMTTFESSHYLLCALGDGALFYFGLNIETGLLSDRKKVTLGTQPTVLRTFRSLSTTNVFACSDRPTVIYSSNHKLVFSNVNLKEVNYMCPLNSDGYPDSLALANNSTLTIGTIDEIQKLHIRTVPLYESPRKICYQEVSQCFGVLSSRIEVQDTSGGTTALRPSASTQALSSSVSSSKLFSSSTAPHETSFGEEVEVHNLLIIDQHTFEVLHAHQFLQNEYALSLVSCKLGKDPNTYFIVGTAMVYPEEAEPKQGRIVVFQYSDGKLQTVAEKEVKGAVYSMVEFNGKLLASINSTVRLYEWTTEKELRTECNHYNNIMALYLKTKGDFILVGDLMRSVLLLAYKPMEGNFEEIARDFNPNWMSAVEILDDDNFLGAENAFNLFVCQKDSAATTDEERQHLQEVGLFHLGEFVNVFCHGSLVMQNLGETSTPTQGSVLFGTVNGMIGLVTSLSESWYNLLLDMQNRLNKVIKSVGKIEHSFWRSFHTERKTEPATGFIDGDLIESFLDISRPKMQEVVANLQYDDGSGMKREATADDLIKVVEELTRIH

| Structure (SMILES) | IC50 [1, 3] [nM] | IC50 [2, 4] [nM] | also measured |
| --- | --- | --- | --- |
| CCOc1cc(NC(=O)OCc2ccc3c(c2)C(=O)N(C2CCC(=O)NC2=O)C3)c(F)cc1C (stereo not shown) [Compound 228] |  |  | IC50 [1]: < 100 nM |
| Cc1cc(NC(=O)OCc2ccc3c(c2)C(=O)N(C2CCC(=O)NC2=O)C3)cc(C#N)c1C (stereo not shown) [Compound 186] |  |  | IC50 [1]: 100 to 1000 nM |
| O=C1CCC(N2Cc3ccc(COC(=O)NC45CC(F)(C4)C5)cc3C2=O)C(=O)N1 (stereo not shown) [Compound 190] |  |  | IC50 [1]: 100 to 1000 nM |
| CC(C)(C)c1ccc(F)c(NC(=O)OCc2ccc3c(c2)C(=O)N(C2CCC(=O)NC2=O)C3)c1 (stereo not shown) [Compound 235] |  |  | IC50 [1]: 100 to 1000 nM |
| O=C1CCC(N2Cc3ccc(COC(=O)NC45CC(N6CCCCC6)(C4)C5)cc3C2=O)C(=O)N1 (stereo not shown) [Compound 198] |  |  | IC50 [1]: 100 to 1000 nM |
| O=C1CCC(N2Cc3ccc(COC(=O)Nc4cc(Cl)cc5c4OCC5)cc3C2=O)C(=O)N1 (stereo not shown) [Compound 189] |  |  | IC50 [1]: < 100 nM |
| Cc1ccc(NC(=O)OCc2ccc3c(c2)C(=O)N(C2CCC(=O)NC2=O)C3)cc1OC(F)F (stereo not shown) [Compound 24] |  | < 1700 | IC50 [2, 5]: 500 to 1100 nM |
| Cc1cc(NC(=O)OCc2ccc3c(c2)C(=O)N(C2CCC(=O)NC2=O)C3)cc(C(C)(C)C)n1 (stereo not shown) [Compound 118] |  |  | IC50 [2, 6]: < 1100 nM; IC50 [2, 7]: 500 to 1100 nM |
| O=C1CCC(N2Cc3ccc(COC(=O)NC4COC(c5ccccc5)OC4)cc3C2=O)C(=O)N1 (stereo not shown) [Compound 130] |  |  | IC50 [2, 6]: < 1100 nM; IC50 [2, 7]: 500 to 1100 nM |
| O=C1CCC(N2Cc3ccc(COC(=O)Nc4cc(OCCN5CCOCC5)cc(OC(F)(F)F)c4)cc3C2=O)C(=O)N1 (stereo not shown) [Compound 106] |  | < 1700 | IC50 [2, 5]: 500 to 1100 nM |
| O=C1CCC(N2Cc3ccc(COC(=O)Nc4cc(F)c(F)c(Cl)c4)cc3C2=O)C(=O)N1 (stereo not shown) [Compound 132] |  |  | IC50 [2, 6]: < 1100 nM; IC50 [2, 7]: 500 to 1100 nM |
| Cc1c(Cl)cc(NC(=O)OCc2ccc3c(c2)C(=O)N(C2CCC(=O)NC2=O)C3)cc1OC1CCNC1 (stereo not shown) [Compound 44] |  | < 1700 | IC50 [2, 5]: 500 to 1100 nM |
| O=C1CCC(N2Cc3ccc(COC(=O)Nc4ccc(N5CCCC(F)(F)C5)nc4)cc3C2=O)C(=O)N1 (stereo not shown) [Compound 73] |  | < 1100 |  |
| O=C1CCC(N2Cc3ccc(COC(=O)Nc4ccc(F)c(Cl)c4)cc3C2=O)C(=O)N1 (stereo not shown) [Compound 9] |  | < 1700 | IC50 [2, 5]: 1100 to 1700 nM |
| O=C1CCC(N2Cc3ccc(COC(=O)N4CCCCC4)cc3C2=O)C(=O)N1 (stereo not shown) [Compound 23] |  | < 1100 |  |
| Cc1ccccc1-c1ccc(NC(=O)OCc2ccc3c(c2)C(=O)N(C2CCC(=O)NC2=O)C3)cn1 (stereo not shown) [Compound 86] |  | < 1700 | IC50 [2, 5]: 500 to 1100 nM |
| O=C1CCC(N2Cc3ccc(COC(=O)Nc4ccc5c(c4)OCCC5)cc3C2=O)C(=O)N1 (stereo not shown) [Compound 92] |  | < 1700 | IC50 [2, 5]: 500 to 1100 nM |
| O=C1CCC(N2Cc3ccc(COC(=O)Nc4cc(CN5CCOCC5)cc(OC(F)(F)F)c4)cc3C2=O)C(=O)N1 (stereo not shown) [Compound 4] |  | < 1700 | IC50 [2, 5]: 500 to 1100 nM |
| O=C1CCC(N2Cc3ccc(COC(=O)NC4CCN(c5ccccn5)CC4)cc3C2=O)C(=O)N1 (stereo not shown) [Compound 35] |  | < 1100 |  |
| Cc1cc(NC(=O)OCc2ccc3c(c2)C(=O)N(C2CCC(=O)NC2=O)C3)cnc1-c1ccccc1 (stereo not shown) [Compound 88] |  | < 1700 | IC50 [2, 5]: 500 to 1100 nM |
| O=C1CCC(N2Cc3ccc(COC(=O)Nc4cc(F)cc(Cl)c4)cc3C2=O)C(=O)N1 (stereo not shown) [Compound 12] |  | < 1700 | IC50 [2, 5]: 1100 to 1700 nM |

The next lines start with results.

| IC50 [1, 3] [nM] | IC50 [2, 4] [nM] | Structure (SMILES) | also measured |
| --- | --- | --- | --- |
| < 100 |  | O=C1CCC(N2Cc3ccc(COC(=O)Nc4cc(C5CC5)ccc4F)cc3C2=O)C(=O)N1 (stereo not shown) [Compound 207, (2-(2,6-dioxopiperidin-3-yl)-3-oxoisoindolin-5-yl)methyl (5-cyclopropyl-2-fluorophenyl) carbamate] |  |
| 100 to 1000 |  | Cc1cc(F)c(NC(=O)OCc2ccc3c(c2)C(=O)N(C2CCC(=O)NC2=O)C3)cc1OC(F)(F)F (stereo not shown) [Compound 204, (2-(2,6-dioxopiperidin-3-yl)-3-oxoisoindolin-5-yl) methyl (2-fluoro-4-methyl-5-(trifluoromethoxy)phenyl)carbamate] |  |
| 100 to 1000 |  | O=C1CCC(N2Cc3ccc(COC(=O)Nc4cccc(C5CC5)c4)cc3C2=O)C(=O)N1 (stereo not shown) [Compound 216, (2-(2,6-dioxopiperidin-3-yl)-3-oxoisoindolin-5-yl)methyl (3-cyclopropylphenyl)carbamate] |  |
| 100 to 1000 |  | O=C1CCC(N2Cc3ccc(COC(=O)NC45CC(C4)C5)cc3C2=O)C(=O)N1 (stereo not shown) [Compound 193, (2-(2,6-dioxopiperidin-3-yl)-3-oxoisoindolin-5-yl)methyl bicyclo[1.1.1]pentan-1-ylcarbamate] |  |
| 100 to 1000 |  | CC(C)(C)[C@H]1C[C@H](NC(=O)OCc2ccc3c(c2)C(=O)N(C2CCC(=O)NC2=O)C3)C1 (stereo partly drawn) [Compound 185, trans-(2-(2,6-dioxopiperidin-3-yl)-3-oxoisoindolin-5-yl)methyl ((1s,3s)-3-(tert-butyl)cyclobutyl)carbamate] |  |
| 100 to 1000 |  | COC(=O)C12CC(NC(=O)OCc3ccc4c(c3)C(=O)N(C3CCC(=O)NC3=O)C4)(C1)C2 (stereo not shown) [Compound 203, methyl 3-((((2-(2,6-dioxopiperidin-3-yl)-3-oxoisoindolin-5-yl)methoxy)carbonyl)amino)bicyclo[1.1.1]pentane-1-carboxylate] |  |
| < 100 |  | O=C1CCC(N2Cc3ccc(COC(=O)Nc4cc(F)c5c(c4)CCO5)cc3C2=O)C(=O)N1 (stereo not shown) [Compound 212, (2-(2,6-dioxopiperidin-3-yl)-3-oxoisoindolin-5-yl)methyl (7-fluoro-2,3-dihydrobenzofuran-5-yl)carbamate] |  |
| 100 to 1000 |  | O=C1CCC(N2Cc3ccc(COC(=O)NC45CC(CF)(C4)C5)cc3C2=O)C(=O)N1 (stereo not shown) [Compound 202, (2-(2,6-dioxopiperidin-3-yl)-3-oxoisoindolin-5-yl)methyl (3-(fluoromethyl)bicyclo[1.1.1]pentan-1-yl) carbamate] |  |
| < 100 |  | CCOc1ccc(F)c(NC(=O)OCc2ccc3c(c2)C(=O)N(C2CCC(=O)NC2=O)C3)c1 (stereo not shown) [Compound 223, (2-(2,6-dioxopiperidin-3-yl)-3-oxoisoindolin-5-yl)methyl (5-ethoxy-2-fluorophenyl)carbamate] |  |
| < 100 |  | O=C1CCC(N2Cc3ccc(COC(=O)NC45C6C7C4C4C5C6C74c4ccccc4)cc3C2=O)C(=O)N1 (stereo not shown) [Compound 225, (2-(2,6-dioxopiperidin-3-yl)-3-oxoisoindolin-5-yl)methyl (4-phenylcuban-1-yl)carbamate] |  |
| 100 to 1000 |  | O=C1CCC(N2Cc3ccc(COC(=O)Nc4cc(OC(F)(F)F)c(F)cc4F)cc3C2=O)C(=O)N1 (stereo not shown) [Compound 200, (2-(2,6-dioxopiperidin-3-yl)-3-oxoisoindolin-5-yl)methyl (2,4-difluoro-5-(trifluoromethoxy)phenyl)carbamate] |  |
| 100 to 1000 |  | Cc1cc(F)c(NC(=O)OCc2ccc3c(c2)C(=O)N(C2CCC(=O)NC2=O)C3)cc1C (stereo not shown) [Compound 208, (2-(2,6-dioxopiperidin-3-yl)-3-oxoisoindolin-5-yl)methyl (2-fluoro-4,5-dimethylphenyl)carbamate] |  |
| < 100 |  | Cc1cc(NC(=O)OCc2ccc3c(c2)C(=O)N(C2CCC(=O)NC2=O)C3)ncc1N1CCC[C@H]1C (stereo partly drawn) [Compound 237, (2-(2,6-dioxopiperidin-3-yl)-3-oxoisoindolin-5-yl)methyl (4-methyl-5-((R)-2-methylpyrrolidin-1-yl)pyridin-2-yl)carbamate] |  |
|  | < 1100 | CC(C)(C)c1cccc(NC(=O)OCc2ccc3c(c2)C(=O)N(C2CCC(=O)NC2=O)C3)c1 (stereo not shown) [Compound 153, (2-(2,6-dioxopiperidin-3-yl)-3-oxoisoindolin-5-yl)methyl (3-(tert-butyl)phenyl)carbamate] | IC50 [2, 5]: 500 to 1100 nM |
|  | < 1100 | C[C@@H]1CCCN1c1ccc(NC(=O)OCc2ccc3c(c2)C(=O)N(C2CCC(=O)NC2=O)C3)cn1 (stereo partly drawn) [Compound 157, (2-(2,6-dioxopiperidin-3-yl)-3-oxoisoindolin-5-yl)methyl (6-((R)-2-methylpyrrolidin-1-yl)pyridin-3-yl)carbamate] |  |
|  | < 1100 | C[C@H]1CCCN1c1ccc(NC(=O)OCc2ccc3c(c2)C(=O)N(C2CCC(=O)NC2=O)C3)cn1 (stereo partly drawn) [Compound 156, (2-(2,6-dioxopiperidin-3-yl)-3-oxoisoindolin-5-yl)methyl (6-((S)-2-methylpyrrolidin-1-yl)pyridin-3-yl)carbamate] |  |
|  | < 1100 | Cc1cc(C)c(NC(=O)OCc2ccc3c(c2)C(=O)N(C2CCC(=O)NC2=O)C3)cc1Cl (stereo not shown) [Compound 123, (2-(2,6-dioxopiperidin-3-yl)-3-oxoisoindolin-5-yl) methyl (5-chloro-2,4-dimethylphenyl)carbamate] | IC50 [2, 5]: 500 to 1100 nM |
